According to patent US9822103B2, “Inhibitors of lysine methyl transferase” (priority 2013, dated 2017):

Target: recombinant EZH2-641F complex (EZH2 Y641F/EED/SUZ12/RbAp48/AEBP2) (Homo sapiens (Human), UniProt Q15910, Y641F)
Experiment: EZH2 Histone Methyl Transferase Assay (scintillation proximity assay)
Type: biochemical
Details: 350 nM histone peptide substrate, 500 nM 3H-SAM, 3 hours room temperature
Protocol: EZH2 Histone Methyl Transferase Assay
The effectiveness of compounds of the present invention as inhibitors of histone methyl transferases can be readily tested by assays known to those skilled in the art. For example, in vitro histone methyl transferase assays may be conducted with a relevant purified histone methyl transferase and an appropriate synthetic substrate to determine the inhibitory activity of the compounds. Assays for inhibition of EZH2 by the instant compounds were performed in 384-well plates with reaction mixtures containing 350 nM of histone peptide substrate (ATKAAR-K(Me2)-SAPATGGVKKPHRYRPG-GK(Biotin), 500 nM S-[methyl-^3H]adenosyl-L-methionine (55-85 Ci/mmol), 50 mM Tris-HCl (pH 9.0), 50 mM NaCl, 1 mM dithiothreitol, Tween-20 at 0.01% and fatty-acid free bovine serum albumin at 0.01%, and recombinant EZH2-641F complex (EZH2 Y641F/EED/SUZ12/RbAp48/AEBP2) at 5 nM (>98% purity, BPS Bioscience) or 15 nM (50% purity, in-house). Reaction mixtures were incubated at room temperature for 3 hours, and the reactions were terminated by 0.005% poly-L-lysine solution in 20 mM Tris-HCl (pH 7.5) and 150 mM NaCl. Reaction products were captured by binding to strepavidin-conjugated imaging beads. Incorporation of radioactive methyl group into the histone peptide substrate was determined in Leadseeker (GE Healthcare) by means of scintillation proximity assay. Dose response curves were generated to determine the concentration required to inhibit 50% of methyl transferase activity (EC50). Compounds were dissolved at 10 mM in dimethylsulfoxide (DMSO) and evaluated at eleven concentrations. EC50 values were derived by non-linear regression analysis.

recombinant EZH2-641F complex (EZH2 Y641F/EED/SUZ12/RbAp48/AEBP2), sequence (Q15910 whole entry Y641F): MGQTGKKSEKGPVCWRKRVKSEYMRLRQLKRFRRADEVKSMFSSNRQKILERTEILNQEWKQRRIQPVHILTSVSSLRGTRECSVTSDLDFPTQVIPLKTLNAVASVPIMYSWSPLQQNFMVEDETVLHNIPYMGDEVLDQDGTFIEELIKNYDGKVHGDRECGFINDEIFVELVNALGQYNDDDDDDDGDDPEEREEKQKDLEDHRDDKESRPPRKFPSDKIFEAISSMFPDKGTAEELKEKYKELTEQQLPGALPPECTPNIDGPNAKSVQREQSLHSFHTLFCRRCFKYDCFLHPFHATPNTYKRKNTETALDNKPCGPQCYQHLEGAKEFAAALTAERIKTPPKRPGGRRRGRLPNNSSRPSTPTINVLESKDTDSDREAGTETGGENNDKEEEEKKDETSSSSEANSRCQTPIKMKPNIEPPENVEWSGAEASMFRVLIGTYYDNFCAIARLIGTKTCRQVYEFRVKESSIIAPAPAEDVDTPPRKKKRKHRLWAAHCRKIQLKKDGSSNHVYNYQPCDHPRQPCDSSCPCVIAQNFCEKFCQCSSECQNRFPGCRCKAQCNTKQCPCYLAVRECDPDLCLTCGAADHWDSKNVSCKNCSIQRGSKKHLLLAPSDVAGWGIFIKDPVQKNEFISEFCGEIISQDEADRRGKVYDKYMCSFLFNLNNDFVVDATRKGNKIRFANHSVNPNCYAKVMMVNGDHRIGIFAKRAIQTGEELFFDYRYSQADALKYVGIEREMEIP
recombinant EZH2-641F complex (EZH2 Y641F/EED/SUZ12/RbAp48/AEBP2), sequence (O75530 whole entry partner): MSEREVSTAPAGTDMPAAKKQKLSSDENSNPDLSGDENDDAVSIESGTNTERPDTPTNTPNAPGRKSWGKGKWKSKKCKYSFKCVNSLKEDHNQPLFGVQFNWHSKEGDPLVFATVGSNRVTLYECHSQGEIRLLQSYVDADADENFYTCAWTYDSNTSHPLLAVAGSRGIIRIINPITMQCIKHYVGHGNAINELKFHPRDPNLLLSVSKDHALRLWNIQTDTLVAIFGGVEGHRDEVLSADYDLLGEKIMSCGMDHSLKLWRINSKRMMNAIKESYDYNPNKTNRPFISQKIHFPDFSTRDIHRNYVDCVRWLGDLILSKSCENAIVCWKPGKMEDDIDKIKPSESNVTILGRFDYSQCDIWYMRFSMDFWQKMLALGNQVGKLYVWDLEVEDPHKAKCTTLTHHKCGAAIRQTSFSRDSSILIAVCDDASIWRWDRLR
recombinant EZH2-641F complex (EZH2 Y641F/EED/SUZ12/RbAp48/AEBP2), sequence (Q15022 whole entry partner): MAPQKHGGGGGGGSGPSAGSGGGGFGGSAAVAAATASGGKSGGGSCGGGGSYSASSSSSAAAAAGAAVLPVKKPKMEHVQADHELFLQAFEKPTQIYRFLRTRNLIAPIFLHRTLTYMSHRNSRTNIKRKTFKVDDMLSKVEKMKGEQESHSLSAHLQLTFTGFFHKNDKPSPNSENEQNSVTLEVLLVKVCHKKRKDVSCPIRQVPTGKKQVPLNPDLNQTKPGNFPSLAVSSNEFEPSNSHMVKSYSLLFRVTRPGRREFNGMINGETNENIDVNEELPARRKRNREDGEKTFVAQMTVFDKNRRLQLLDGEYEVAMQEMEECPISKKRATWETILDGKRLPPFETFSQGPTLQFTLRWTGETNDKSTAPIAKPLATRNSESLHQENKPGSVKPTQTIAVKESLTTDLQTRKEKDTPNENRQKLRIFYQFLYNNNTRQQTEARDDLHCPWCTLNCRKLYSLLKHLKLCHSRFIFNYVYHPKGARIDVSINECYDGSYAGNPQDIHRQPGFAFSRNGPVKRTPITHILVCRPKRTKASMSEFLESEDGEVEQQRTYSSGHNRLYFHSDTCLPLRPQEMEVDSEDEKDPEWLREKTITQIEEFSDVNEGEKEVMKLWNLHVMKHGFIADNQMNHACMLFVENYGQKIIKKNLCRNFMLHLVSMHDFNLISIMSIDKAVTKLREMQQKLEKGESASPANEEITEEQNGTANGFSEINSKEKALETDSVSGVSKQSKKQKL
recombinant EZH2-641F complex (EZH2 Y641F/EED/SUZ12/RbAp48/AEBP2), sequence (Q09028 whole entry partner): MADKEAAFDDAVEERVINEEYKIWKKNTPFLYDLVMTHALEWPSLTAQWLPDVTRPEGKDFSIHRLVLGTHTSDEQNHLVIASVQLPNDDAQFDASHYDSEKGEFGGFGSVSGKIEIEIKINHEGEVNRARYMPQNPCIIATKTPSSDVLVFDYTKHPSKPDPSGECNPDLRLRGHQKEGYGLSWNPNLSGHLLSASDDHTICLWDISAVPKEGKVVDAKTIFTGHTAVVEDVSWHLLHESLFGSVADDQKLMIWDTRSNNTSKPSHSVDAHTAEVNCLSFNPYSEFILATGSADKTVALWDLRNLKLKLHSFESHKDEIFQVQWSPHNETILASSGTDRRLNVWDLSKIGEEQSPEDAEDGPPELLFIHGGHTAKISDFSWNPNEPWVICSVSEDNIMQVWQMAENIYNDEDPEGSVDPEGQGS
recombinant EZH2-641F complex (EZH2 Y641F/EED/SUZ12/RbAp48/AEBP2), sequence (Q6ZN18 whole entry partner): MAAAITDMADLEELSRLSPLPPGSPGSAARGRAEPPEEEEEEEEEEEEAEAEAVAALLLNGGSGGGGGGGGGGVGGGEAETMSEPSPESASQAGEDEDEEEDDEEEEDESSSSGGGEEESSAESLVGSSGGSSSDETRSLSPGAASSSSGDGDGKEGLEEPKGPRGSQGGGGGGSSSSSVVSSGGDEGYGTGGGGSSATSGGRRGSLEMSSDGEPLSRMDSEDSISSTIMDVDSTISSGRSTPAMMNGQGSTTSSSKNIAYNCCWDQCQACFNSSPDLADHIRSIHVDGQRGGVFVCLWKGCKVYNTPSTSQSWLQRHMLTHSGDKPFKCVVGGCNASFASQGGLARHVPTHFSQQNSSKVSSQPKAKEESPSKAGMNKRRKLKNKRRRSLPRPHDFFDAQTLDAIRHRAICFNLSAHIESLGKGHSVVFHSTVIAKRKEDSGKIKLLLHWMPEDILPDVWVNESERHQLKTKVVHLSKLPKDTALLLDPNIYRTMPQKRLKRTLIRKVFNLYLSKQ

Cc1cc(C)c(CNC(=O)c2cc(Br)c3c(c2)CC(C)CCO3)c(=O)[nH]1 (centres unmarked) [Example 45, 9-Bromo-N-((4,6-dimethyl-2-oxo-1,2-dihydropyridin-3-yl)methyl)-4-methyl-2,3,4,5-tetrahydrobenzo[b]oxepine-7-carboxamide] and Cc1cc(C)c(CNC(=O)c2cc(Br)c3c(c2)CCC(C)CO3)c(=O)[nH]1 (centres unmarked) [Example 53, 9-Bromo-N-((4,6-dimethyl-2-oxo-1,2-dihydropyridin-3-yl)methyl)-3-methyl-2,3,4,5-tetrahydrobenzo[b]oxepine-7-carboxamide] cannot be ordered by IC50: > 1000 nM for the first, > 1000 nM for the second.

COc1ccc(-c2cc(C(=O)NCc3c(C)cc(C)[nH]c3=O)cc3c2OCCC(C)C3)cn1 (centres unmarked) [Example 46, N-((4,6-Dimethyl-2-oxo-1,2-dihydropyridin-3-yl)methyl)-9-(6-methoxypyridin-3-yl)-4-methyl-2,3,4,5-tetrahydrobenzo[b]oxepine-7-carboxamide] and COc1ccc(-c2cc(C(=O)NCc3c(C)cc(C)[nH]c3=O)cc3c2OCC(C)CC3)cn1 (centres unmarked) [Example 54, N-((4,6-dimethyl-2-oxo-1,2-dihydropyridin-3-yl)methyl)-9-(6-methoxypyridin-3-yl)-3-methyl-2,3,4,5-tetrahydrobenzo[b]oxepine-7-carboxamide] cannot be ordered by IC50: > 1000 nM for the first, > 1000 nM for the second.

Cc1cc(C)c(CNC(=O)c2ccc3c(c2)C=CCC(C)O3)c(=O)[nH]1 (centres unmarked) [Example 47, N-((4,6-Dimethyl-2-oxo-1,2-dihydropyridin-3-yl)methyl)-2-methyl-2,3-dihydrobenzo[b]oxepine-7-carboxamide] and Cc1cc(C)c(CNC(=O)c2ccc3c(c2)CCCC(C)O3)c(=O)[nH]1 (centres unmarked) [Example 48, N-((4,6-Dimethyl-2-oxo-1,2-dihydropyridin-3-yl)methyl)-2-methyl-2,3,4,5-tetrahydrobenzo[b]oxepine-7-carboxamide] cannot be ordered by IC50: > 1000 nM for the first, > 1000 nM for the second.

Cc1cc(C)c(CNC(=O)c2cc(Br)c3c(c2)CCCC(C)O3)c(=O)[nH]1 (centres unmarked) [Example 49, 9-Bromo-N-((4,6-dimethyl-2-oxo-1,2-dihydropyridin-3-yl)methyl)-2-methyl-2,3,4,5-tetrahydrobenzo[b]oxepine-7-carboxamide] and COc1ccc(-c2cc(C(=O)NCc3c(C)cc(C)[nH]c3=O)cc3c2OC(C)CCC3)cn1 (centres unmarked) [Example 52, N-((4,6-Dimethyl-2-oxo-1,2-dihydropyridin-3-yl)methyl)-9-(6-methoxypyridin-3-yl)-2-methyl-2,3,4,5-tetrahydrobenzo[b]oxepine-7-carboxamide] cannot be ordered by IC50: > 1000 nM for the first, > 1000 nM for the second.

Cc1cc(C)c(CNC(=O)c2cc3c(c(-c4ccc(CN5CCOCC5)cc4)c2)OC(C)CCC3)c(=O)[nH]1 (centres unmarked) [Example 50, N-((4,6-Dimethyl-2-oxo-1,2-dihydropyridin-3-yl)methyl)-2-methyl-9-(4-(morpholinomethyl)phenyl)-2,3,4,5-tetrahydrobenzo[b]oxepine-7-carboxamide] and C=CC1(C)Cc2cc(C(=O)NCc3c(C)cc(C)[nH]c3=O)cc(-c3ccc(CN4CCOCC4)cc3)c2O1 (centres unmarked) [Example 58, N-((4,6-Dimethyl-2-oxo-1,2-dihydropyridin-3-yl)methyl)-2-methyl-7-(4-(morpholinomethyl)phenyl)-2-vinyl-2,3-dihydrobenzofuran-5-carboxamide] cannot be ordered by IC50: > 1000 nM for the first, > 1000 nM for the second.

Cc1cc(C)c(CNC(=O)c2cc3c(c(-c4ccc(N5CCNCC5)nc4)c2)OC(C)CCC3)c(=O)[nH]1 (centres unmarked) [Example 51, N-((4,6-Dimethyl-2-oxo-1,2-dihydropyridin-3-yl)methyl)-2-methyl-9-(6-(piperazin-1-yl)pyridin-3-yl)-2,3,4,5-tetrahydrobenzo[b]oxepine-7-carboxamide] and Cc1cc(C)c(CNC(=O)c2cc3c(c(-c4ccc(N5CCNCC5)nc4)c2)OCC(C)CC3)c(=O)[nH]1 (centres unmarked) [Example 55, N-((4,6-Dimethyl-2-oxo-1,2-dihydropyridin-3-yl)methyl)-3-methyl-9-(6-(piperazin-1-yl)pyridin-3-yl)-2,3,4,5-tetrahydrobenzo[b]oxepine-7-carboxamide] cannot be ordered by IC50: > 1000 nM for the first, > 1000 nM for the second.

C=CC1(C)Cc2cc(C(=O)NCc3c(C)cc(C)[nH]c3=O)cc(-c3ccc(OC)nc3)c2O1 (centres unmarked) [Example 56, N-((4,6-Dimethyl-2-oxo-1,2-dihydropyridin-3-yl)methyl)-7-(6-methoxypyridin-3-yl)-2-methyl-2-vinyl-2,3-dihydrobenzofuran-5-carboxamide] and CCC1(C)Cc2cc(C(=O)NCc3c(C)cc(C)[nH]c3=O)cc(-c3ccc(OC)nc3)c2O1 (centres unmarked) [Example 61, N-((4,6-Dimethyl-2-oxo-1,2-dihydropyridin-3-yl)methyl)-2-ethyl-7-(6-methoxypyridin-3-yl)-2-methyl-2,3-dihydrobenzofuran-5-carboxamide] cannot be ordered by IC50: > 1000 nM for the first, > 1000 nM for the second.

C=CC1(C)Cc2cc(C(=O)NCc3c(C)cc(C)[nH]c3=O)cc(Br)c2O1 (centres unmarked) [Example 57, 7-Bromo-N-((4,6-dimethyl-2-oxo-1,2-dihydropyridin-3-yl)methyl)-2-methyl-2-vinyl-2,3-dihydrobenzofuran-5-carboxamide] and Cc1cc(C)c(CNC(=O)c2cc(Br)c3c(c2)CC2(CCCC2)O3)c(=O)[nH]1 [Example 70, 7-Bromo-N-((4,6-dimethyl-2-oxo-1,2-dihydropyridin-3-yl)methyl)-3H-spiro[benzofuran-2,1′-cyclopentane]-5-carboxamide] cannot be ordered by IC50: > 1000 nM for the first, > 1000 nM for the second.

C=CC1(C)Cc2cc(C(=O)NCc3c(C)cc(C)[nH]c3=O)cc(-c3ccc(N4CCNCC4)nc3)c2O1 (centres unmarked) [Example 59, N-((4,6-Dimethyl-2-oxo-1,2-dihydropyridin-3-yl)methyl)-2-methyl-7-(6-(piperazin-1-yl)pyridin-3-yl)-2-vinyl-2,3-dihydrobenzofuran-5-carboxamide] and CCC1(C)Cc2cc(C(=O)NCc3c(C)cc(C)[nH]c3=O)cc(-c3ccc(N4CCNCC4)nc3)c2O1 (centres unmarked) [Example 62, N-((4,6-Dimethyl-2-oxo-1,2-dihydropyridin-3-yl)methyl)-2-ethyl-2-methyl-7-(6-(piperazin-1-yl)pyridin-3-yl)-2,3-dihydrobenzofuran-5-carboxamide] cannot be ordered by IC50: < 500 nM for the first, < 500 nM for the second.

C=CC1(C)Cc2cc(C(=O)NCc3c(C)cc(C)[nH]c3=O)cc(-c3cnc(N4CCN(C(=O)OC(C)(C)C)CC4)nc3)c2O1 (centres unmarked) [Example 60, t-Butyl 4-(5-(5-(((4,6-dimethyl-2-oxo-1,2-dihydropyridin-3-yl)methyl)carbamoyl)-2-methyl-2-vinyl-2,3-dihydrobenzofuran-7-yl)pyrimidin-2-yl)piperazine-1-carboxylate] and Cc1cc(C)c(CNC(=O)c2cc3c(c(-c4cnc(N5CCN(C(=O)OC(C)(C)C)CC5)nc4)c2)OC2(CCCC2)C3)c(=O)[nH]1 [Example 73, tert-Butyl 4-(5-(5-(((4,6-dimethyl-2-oxo-1,2-dihydropyridin-3-yl)methyl)carbamoyl)-3H-spiro[benzofuran-2,1′-cyclopentan]-7-yl)pyrimidin-2-yl)piperazine-1-carboxylate] cannot be ordered by IC50: > 1000 nM for the first, > 1000 nM for the second.

CCC1(C)Cc2cc(C(=O)NCc3c(C)cc(C)[nH]c3=O)cc(-c3ccc(C)cc3)c2O1 (centres unmarked) [Example 63, N-((4,6-Dimethyl-2-oxo-1,2-dihydropyridin-3-yl)methyl)-2-ethyl-2-methyl-7-(p-tolyl)-2,3-dihydrobenzofuran-5-carboxamide] and COc1ccc(-c2cc(C(=O)NCc3c(C)cc(C)[nH]c3=O)cc3c2OC2(CCCC2)C3)cn1 [Example 71, N-((4,6-Dimethyl-2-oxo-1,2-dihydropyridin-3-yl)methyl)-7-(6-methoxypyridin-3-yl)-3H-spiro[benzofuran-2,1′-cyclopentane]-5-carboxamide] cannot be ordered by IC50: > 1000 nM for the first, > 1000 nM for the second.

Compared with Cc1cc(C)c(CNC(=O)c2cc3c(c(-c4ccc(N5CCNCC5)nc4)c2)OC2(CCCC2)C3)c(=O)[nH]1 [Example 72, N-((4,6-Dimethyl-2-oxo-1,2-dihydropyridin-3-yl)methyl)-7-(6-(piperazin-1-yl)pyridin-3-yl)-3H-spiro[benzofuran-2,1′-cyclopentane]-5-carboxamide], Cc1cc(C)c(CNC(=O)c2cc3c(c(-c4ccc(CN5CCCCC5)cc4)c2)OC2(CCCC2)C3)c(=O)[nH]1 [Example 74, N-((4,6-Dimethyl-2-oxo-1,2-dihydropyridin-3-yl)methyl)-7-(4-(piperidin-1-ylmethyl)phenyl)-3H-spiro[benzofuran-2,1′-cyclopentane]-5-carboxamide] is higher in IC50: < 500 nM for the first, > 1000 nM for the second. The first is the more potent here.

Cc1cc(C)c(CNC(=O)c2cc(Br)c3c(c2)C2(CCCC2)CO3)c(=O)[nH]1 [Example 75, 7-Bromo-N-((4,6-dimethyl-2-oxo-1,2-dihydropyridin-3-yl)methyl)-2H-spiro[benzofuran-3,1′-cyclopentane]-5-carboxamide] and COc1ccc(-c2cc(C(=O)NCc3c(C)cc(C)[nH]c3=O)cc3c2OCC32CCCC2)cn1 [Example 76, N-((4,6-Dimethyl-2-oxo-1,2-dihydropyridin-3-yl)methyl)-7-(6-methoxypyridin-3-yl)-2H-spiro[benzofuran-3,1′-cyclopentane]-5-carboxamide] cannot be ordered by IC50: > 1000 nM for the first, > 1000 nM for the second.
